Patent US20250304623A1, “PEPTIDES FOR INTRACELLULAR DELIVERY” (UNIVERSIDADE DE SANTIAGO DE COMPOSTELA, priority 2022, published 2025)

Legend:
Format in all cases: cell-based
[1] = test system: HepG2 cells expressing EGFP; assay: EGFP-targeting siRNA delivery (GFP silencing vs siMOCK), HepG2
Procedure: (§1) To generate an EGFP expressing HeLa cell line, HeLa cells were transfected with EGFP pDNA (pEGFP-C1, Clontech) and stable transfectants were selected with 400 μg/mL of G-418 (Millipore). Green clones were selected by epifluorescence microscopy and tested for EGFP expression stability through several passages. […] All other EGFP-expressing cell lines were obtained in a similar way from parent non-EGFP-expressing cell lines.
(§2) Cells expressing EGFP were seeded in a 96 well plate the day before the experiment at a concentration of 50,000 cell/mL (100 μL/w) in DMEM+10% FBS+1% Gln-Abt. For robotic library screening, the delivery of an EGFP-targeting siRNA (EGFP: enhanced green fluorescent protein, Ambion® Silencer® GFP Positive Control siRNA (siGFP) (AM4626)) in six different cell lines expressing EGFP was performed. […] The mixture was shaken for 30 min at room temperature (rt) before the addition to the cells. The cell medium was aspirated, and cells were washed twice with PBS. Finally, 50 μL of the solution of siRNA/amphiphile complexes were added to the cells and incubated for 4 h. After transfection, the medium was replaced by 100 μL of fresh DMEM supplemented with 10% FBS. The fluorescence knockdown was quantified after 72 h in a plate reader, by comparison with cells transfected with a non-targeting siRNA control (siMOCK, Silencer™ Negative Control No. 1 siRNA (siMOCK) (AM4611)). EGFP knockdown was compared with Lipofectamine® RNAiMAX silencing efficiency (30-60% depending on cell line, defined with a numeric value in the below tables). All experiments were done in triplicate.
(§3) Tables 1-7: RLuc (pDNA) or EGFP (mRNA) expression levels were normalized to Lipofectamine reagents (value=1) and expressed as fold-times signal increase. In the case of siRNA, the siRNA treated cells fluorescence was compared with siMOCK control fluorescence, while Cas9-RNP mediated knockout was measured against the fluorescence of untreated cells. In both siRNA and Cas9-RNP, values are expressed as % fluorescence reduction. Amphiphile concentration was 5 μM in all cases. All experiments were performed in triplicate.
(§4) Tables 20-25 show the mean (triplicates) percentage of GFP-silencing, accounted by fluorescence intensity decrease relative to a non-targeting siRNA (siMOCK) control, measured after the transfection of siRNA by different amphiphiles at different concentrations in a variety of cell lines. Background values, accounted by untreated control cells, were subtracted for processing.

[2] = test system: Hek293 cells expressing EGFP; assay: EGFP-targeting siRNA delivery (GFP silencing vs siMOCK), Hek293
Procedure: as §1, §2, §3, §4

[3] = test system: HepG2 cells expressing EGFP; assay: Cas9-RNP delivery against EGFP (gene editing, plate reader), HepG2
Procedure: as §1
(§5) Cells expressing EGFP were seeded in a 96 well plate the day before the experiment at a concentration of 50,000 cell/mL (100 μL/w) in DMEM+10% FBS+1% Gln-Abt. For robotic library screening, the delivery of Cas9-RNP against EGFP (RNP designed to knock-out the gene encoding for the enhanced green fluorescent protein (EGFP)) was performed. For RNP assembly, 9.2 μL of crRNA and 9.2 μL of tracrRNA were mixed in 211.6 μL of Nuclease-Free Duplex Buffer (IDT), incubated for 5 min at 95° C. and slowly cooled at rt (see I. Lostalé-Seijo, et al. Peptide/Cas9 nanostructures for ribonucleoprotein cell membrane transport and gene edition, Chem. Sci., 2017). Cas9 protein was dissolved in DMEM at a final concentration of 4 μM and equal volumes of the RNA complex and Cas9 were mixed and incubated for 5 min at rt. 75 μL of the corresponding amphiphile concentrations were added to 5 μL of RNP at 2 μM. The mixture was shaken for 30 min at room temperature before the addition to the cells. The cell medium was aspirated, and cells were washed twice with PBS. Cells were covered with 30 μL of DMEM and 20 μL of the RNP/amphiphile complexes were added to the cells (final peptide concentrations=2.5, 5 and 10 μM; final Cas9-RNP concentration=50 nM) and incubated for 4 h. After the incubation, the medium was replaced by 100 μL of fresh DMEM supplemented with 10% FBS. The total EGFP fluorescence was quantified after 72 h in a plate reader (FIG. 2, Table 1 (right) and Table 6). All experiments were done in triplicate. […]
(§6) Tables 26-31 show the mean (triplicates) percentage of gene editing, accounted by GFP fluorescence intensity decrease (% of reduction), measured after the transfection of Cas9-RNP by different amphiphiles at different concentrations in a variety of cell lines. Background values, accounted by untreated control cells, were subtracted for processing.

[4] = test system: ARPE19 cells expressing EGFP; assay: EGFP-targeting siRNA delivery (GFP silencing vs siMOCK), ARPE19
Procedure: as §1, §2, §3, §4

[5] = test system: ARPE19 cells expressing EGFP; assay: Cas9-RNP delivery against EGFP (gene editing, plate reader), ARPE19
Procedure: as §1, §5, §6

## Ac-RHLK*RHK*RRLK*RH-NH2 (Ac-RHLKRHKRRLKRH-NH2; not fully specified (residues 4, 7, 11); printed as Ac-RHLK*RHK*RRLK*RH-NH2; also: linker on K* not given here) [13(3His)]
[1]; Myristoleyl, 10 μM
  percentage of GFP-silencing relative to siMOCK: 8%
[1]; Palmitoleyl, 10 μM
  percentage of GFP-silencing relative to siMOCK: 6%
[1]; Petroselinyl, 5 μM
  percentage of GFP-silencing relative to siMOCK: −1%
[1]; Petroselinyl, 10 μM
  percentage of GFP-silencing relative to siMOCK: 19%
[2]; Dodecanal, 10 μM
  percentage of GFP-silencing relative to siMOCK: −11%
[2]; Myristoleyl, 15 μM
  percentage of GFP-silencing relative to siMOCK: 11%
[2]; Oleyl, 10 μM
  percentage of GFP-silencing relative to siMOCK: 2%
[3]; Dodecanal, 5 μM
  percentage of gene editing, GFP fluorescence intensity decrease (% of reduction): −33%
[3]; Dodecanal, 10 μM
  percentage of gene editing, GFP fluorescence intensity decrease (% of reduction): −34%
[3]; Myristoleyl, 10 μM
  percentage of gene editing, GFP fluorescence intensity decrease (% of reduction): −1%
[3]; Palmitoleyl, 5 μM
  percentage of gene editing, GFP fluorescence intensity decrease (% of reduction): −28%
[3]; Palmitoleyl, 10 μM
  percentage of gene editing, GFP fluorescence intensity decrease (% of reduction): −24%
[3]; Palmitoleyl, 15 μM
  percentage of gene editing, GFP fluorescence intensity decrease (% of reduction): −15%
[3]; Petroselinyl, 5 μM
  percentage of gene editing, GFP fluorescence intensity decrease (% of reduction): −16%
[4]; Dodecanal, 5 μM
  percentage of GFP-silencing relative to siMOCK: 16%
[4]; Dodecanal, 15 μM
  percentage of GFP-silencing relative to siMOCK: 22%
[4]; Myristoleyl, 10 μM
  percentage of GFP-silencing relative to siMOCK: 42%
[4]; Myristoleyl, 15 μM
  percentage of GFP-silencing relative to siMOCK: 30%
[4]; Oleyl, 10 μM
  percentage of GFP-silencing relative to siMOCK: 43%
[4]; Oleyl, 15 μM
  percentage of GFP-silencing relative to siMOCK: 41%
[4]; Palmitoleyl, 10 μM
  percentage of GFP-silencing relative to siMOCK: 49%
[4]; Palmitoleyl, 15 μM
  percentage of GFP-silencing relative to siMOCK: 25%
[4]; Petroselinyl, 5 μM
  percentage of GFP-silencing relative to siMOCK: 13%
[4]; Petroselinyl, 10 μM
  percentage of GFP-silencing relative to siMOCK: 56%
[4]; Petroselinyl, 15 μM
  percentage of GFP-silencing relative to siMOCK: 30%
[5]; Petroselinyl, 15 μM
  percentage of gene editing, GFP fluorescence intensity decrease (% of reduction): 34%

## Ac-RHLK*RLK*RRLK*RL-NH2 (Ac-RHLKRLKRRLKRL-NH2; not fully specified (residues 4, 7, 11); printed as Ac-RHLK*RLK*RRLK*RL-NH2; also: linker on K* not given here) [13(Arg-His)]
[1]; Palmitoleyl, 10 μM
  percentage of GFP-silencing relative to siMOCK: 30%
[1]; Petroselinyl, 5 μM
  percentage of GFP-silencing relative to siMOCK: 21%
[2]; Dodecanal, 5 μM
  percentage of GFP-silencing relative to siMOCK: 24%
[2]; Dodecanal, 10 μM
  percentage of GFP-silencing relative to siMOCK: 39%
[2]; Dodecanal, 15 μM
  percentage of GFP-silencing relative to siMOCK: 44%
[2]; Myristoleyl, 10 μM
  percentage of GFP-silencing relative to siMOCK: 48%
[2]; Myristoleyl, 15 μM
  percentage of GFP-silencing relative to siMOCK: 25%
[2]; Oleyl, 10 μM
  percentage of GFP-silencing relative to siMOCK: 39%
[2]; Oleyl, 15 μM
  percentage of GFP-silencing relative to siMOCK: 47%
[2]; Petroselinyl, 5 μM
  percentage of GFP-silencing relative to siMOCK: 30%
[2]; Petroselinyl, 10 μM
  percentage of GFP-silencing relative to siMOCK: 5%
[2]; Petroselinyl, 15 μM
  percentage of GFP-silencing relative to siMOCK: 18%
[3]; Dodecanal, 5 μM
  percentage of gene editing, GFP fluorescence intensity decrease (% of reduction): −31%
[3]; Dodecanal, 10 μM
  percentage of gene editing, GFP fluorescence intensity decrease (% of reduction): −10%
[3]; Dodecanal, 15 μM
  percentage of gene editing, GFP fluorescence intensity decrease (% of reduction): 14%
[3]; Myristoleyl, 5 μM
  percentage of gene editing, GFP fluorescence intensity decrease (% of reduction): 10%
[3]; Myristoleyl, 10 μM
  percentage of gene editing, GFP fluorescence intensity decrease (% of reduction): 33%
[3]; Oleyl, 10 μM
  percentage of gene editing, GFP fluorescence intensity decrease (% of reduction): −4%
[3]; Oleyl, 15 μM
  percentage of gene editing, GFP fluorescence intensity decrease (% of reduction): 15%
[3]; Palmitoleyl, 5 μM
  percentage of gene editing, GFP fluorescence intensity decrease (% of reduction): −8%
[3]; Palmitoleyl, 10 μM
  percentage of gene editing, GFP fluorescence intensity decrease (% of reduction): 26%
[3]; Palmitoleyl, 15 μM
  percentage of gene editing, GFP fluorescence intensity decrease (% of reduction): 7%
[3]; Petroselinyl, 5 μM
  percentage of gene editing, GFP fluorescence intensity decrease (% of reduction): −27%
[4]; Dodecanal, 5 μM
  percentage of GFP-silencing relative to siMOCK: 60%
[4]; Dodecanal, 10 μM
  percentage of GFP-silencing relative to siMOCK: 54%
[4]; Dodecanal, 15 μM
  percentage of GFP-silencing relative to siMOCK: 34%
[4]; Myristoleyl, 10 μM
  percentage of GFP-silencing relative to siMOCK: 0%
[4]; Myristoleyl, 15 μM
  percentage of GFP-silencing relative to siMOCK: 14%
[4]; Oleyl, 10 μM
  percentage of GFP-silencing relative to siMOCK: 29%
[4]; Oleyl, 15 μM
  percentage of GFP-silencing relative to siMOCK: 31%
[4]; Palmitoleyl, 5 μM
  percentage of GFP-silencing relative to siMOCK: 51%
[4]; Palmitoleyl, 10 μM
  percentage of GFP-silencing relative to siMOCK: −6%
[4]; Palmitoleyl, 15 μM
  percentage of GFP-silencing relative to siMOCK: 7%
[4]; Petroselinyl, 5 μM
  percentage of GFP-silencing relative to siMOCK: 42%
[4]; Petroselinyl, 10 μM
  percentage of GFP-silencing relative to siMOCK: 24%
[4]; Petroselinyl, 15 μM
  percentage of GFP-silencing relative to siMOCK: 26%
[5]; Dodecanal, 5 μM
  percentage of gene editing, GFP fluorescence intensity decrease (% of reduction): 25%
[5]; Dodecanal, 15 μM
  percentage of gene editing, GFP fluorescence intensity decrease (% of reduction): 21%
[5]; Myristoleyl, 10 μM
  percentage of gene editing, GFP fluorescence intensity decrease (% of reduction): 15%
[5]; Myristoleyl, 15 μM
  percentage of gene editing, GFP fluorescence intensity decrease (% of reduction): 9%
[5]; Oleyl, 5 μM
  percentage of gene editing, GFP fluorescence intensity decrease (% of reduction): 14%
[5]; Oleyl, 10 μM
  percentage of gene editing, GFP fluorescence intensity decrease (% of reduction): −6%
[5]; Palmitoleyl, 5 μM
  percentage of gene editing, GFP fluorescence intensity decrease (% of reduction): 25%
[5]; Palmitoleyl, 10 μM
  percentage of gene editing, GFP fluorescence intensity decrease (% of reduction): −12%
[5]; Palmitoleyl, 15 μM
  percentage of gene editing, GFP fluorescence intensity decrease (% of reduction): 20%
[5]; Petroselinyl, 15 μM
  percentage of gene editing, GFP fluorescence intensity decrease (% of reduction): 15%
